Values after ≈ are worked out from the molar mass of the structure shown. Values joined by “and” are separate entries in the source; they are usually repeats but may differ in a detail not shown here. Equal entries are not always repeated. Where two headings read alike, the source gives them in different places.
Legend:
[1] = tested on: human colon carcinoma cells HCT-15; test: Human colon tumor test in vitro, HCT-15 cell growth inhibition; format: cell-based; conditions: for IC50: Homo sapiens, HCT-15, 72 h, read-out: in vitro HCT-15 ID50 (50 percent inhibition of number of doublings); for in vitro HCT-15 ID50 (50 percent inhibition of number of doublings): 4320 min
Procedure: The compound of this invention were also tested for their ability to inhibit the growth of human colon carcinoma cells in vitro.
The human colon carcinoma cells, designated HCT-15, were derived from a specimen of an adenocarcinoma of human colon removed during surgery. The cells were grown in Roswell Park Medical Institute (RPMI) Medium 1640 supplemented with 10% heat inactivated fetal calf serum, penicillin (100 units/ml), streptomycin (100 μg/ml), gentamicin (20 μg/ml), fungizone (25 μg/ml), 0.075 percent sodium bicarbonate, […] 4-(2-hydroxyethyl)-1-piperazineethanesulfonic acid and […] N-tris(hydroxymethyl)methylglycine. […] On day 1 cells from sample dishes were harvested using trypsin (0.25%) treatment and counted with a hemocytometer to determine the number of cells per dish at the time of the addition of the compounds. Compounds of this invention were added in varying concentrations to other cultures. On day 4, treated and control cultures were harvested by trypsin treatment and the number of cells was determined. The number of doublings for the control cells was determined from the cell numbers on days 1 and 4. The ID50, the concentration of compound required to inhibit by 50 percent the number of doublings, was then calculated from the dose-response curve in which cell numbers were plotted on log-log paper against compound concentrations in micrograms per ml.

L1210 leukemia = test: Lymphoid Leukemia L1210, survival of tumored mice; format: in vivo, CD2F1 mice; conditions: for response vs control in vivo at 100 mg/kg: 100 mg/kg i.p.; for response vs control in vivo at 50 mg/kg: 50 mg/kg i.p.; for response vs control in vivo at 200 mg/kg: 200 mg/kg i.p.
Procedure: The efficacy of the compounds of this invention against the transplanted mouse tumors was evaluated in test systems currently in use at the National Cancer Institute for the detection and assessment of anticancer activity. […] J. Cancer, 17, 129-142, (1981); Venditti, J. M., Seminars in Oncology, 8 (4) (1981); Goldin, A. and J. M. Venditti, in Recent Results in Cancer Research, 70, S. K. Carter and Y. Sakurai, Eds., Springer-Verlag, Berlin/Heidelberg, 1980].
The animals used in this test were CD2 F1 mice, all males weighing a minimum of 18 g and all within a 4 g weight range at the start of the test. The test group consisted of six mice. The tumor was implanted in each of the test mice by the intraperitoneal injection of 0.1 ml of diluted ascitic fluid containing 10^5 cells drawn from a mouse with L1210 leukemia. The test compounds were suspended in hydroxypropylcellulose or saline with Tween® 80 surfactant or dissolved in saline and injected intraperitoneally, at various doses, once daily for nine consecutive days starting on day one relative to the day of tumor inoculation (day 0). The control mice received injections of saline or hydroxypropylcellulose vehicle only. The mice were weighed and survivors were recorded on a regular basis for 30 days. The median survival time and the ratio of the median survival time for the treated (T) and control (C) mice was calculated. […] Drug effectiveness was assessed on the basis of the survival time. Results were expressed as a percentage of the control survival time (Median Survival Time: T/C ×100%). The criterion for effectiveness was determined by: T/C×100≥125 percent.

[2] = HCT-15 cells, compound day 1 to day 4
[3] = Mus musculus, L1210, ip, 720 h, read-out: L1210 Leukemia % T/C (median survival time)
[4] = Mus musculus, L1210, ip, 720 h, 75 mg/kg i.p., read-out: L1210 Leukemia % T/C (median survival time)
[5] = Mus musculus, L1210, ip, 720 h, nonoptimal Q1DX9 instead of Q3DX9, read-out: L1210 Leukemia % T/C (median survival time)

For `CSc1ccc2nc(-c3ccc(-c4ccccc4)cc3)c(C)c(C(=O)O)c2c1` [Example 161], the IC50 [1, 2] was > 1 µg/mL and the response vs control in vivo at 100 mg/kg (L1210 leukemia; [3]) was 148%.
`Cc1c(-c2ccc(C3CCCCC3)cc2)nc2ccc(F)cc2c1C(=O)O` [Example 181] was tested, and the “in vitro HCT-15 ID50 (50 percent inhibition of number of doublings)” value [1, 2] was < 0.50 µg/mL and the response vs control in vivo at 37.5 mg/kg (L1210 leukemia; Mus musculus, L1210, ip, 720 h, 37.5 mg/kg i.p., nonoptimal Q1DX9 instead of Q3DX9, read-out: L1210 Leukemia % T/C (median survival time)) was 108%.
With `Cc1c(-c2ccc(Oc3ccccc3)cc2)nc2ccc(Br)cc2c1C(=O)O` [Example 53] the IC50 [1, 2] was < 0.5 µg/mL and the response vs control in vivo at 75 mg/kg (L1210 leukemia; [4]) was 136%.
With `CCc1ccc2nc(-c3ccc(-c4ccccc4)cc3)c(C)c(C(=O)O)c2c1` [Example 141] the “in vitro HCT-15 ID50 (50 percent inhibition of number of doublings)” value [1, 2] was < 0.50 µg/mL and the “L1210 Leukemia % T/C (median survival time)” value (from here on “L1210 Leukemia % T/C”) (L1210 leukemia; 75 mg/kg i.p.) was 139%.
In the case of `Cc1c(-c2ccc(-c3ccc(Br)cc3)cc2)nc2ccc(F)cc2c1C(=O)O` [Example 12], the IC50 [1, 2] is reported as 1 µg/mL (≈ 2.29 µM) and the response vs control in vivo at 50 mg/kg (L1210 leukemia; [3]) is reported as 261%.
`Cc1c(-c2ccc(-c3ccccc3)cc2)nc2ccc(Br)cc2c1C(=O)O` [Example 52] was tested, and the IC50 [1, 2] was < 0.5 µg/mL and the response vs control in vivo at 75 mg/kg (L1210 leukemia; [4]) was 189%.
`Cc1c(-c2ccc(-c3ccccc3)cc2)nc2ccc(F)c(Cl)c2c1C(=O)O` [Example 81, 2-(4-Biphenyl)-5-chloro-6-fluoro-3-methyl-4-quinolinecarboxylic acid] was tested, and the IC50 [1, 2] was < 0.5 µg/mL and the response vs control in vivo at 25 mg/kg (L1210 leukemia; Mus musculus, L1210, ip, 720 h, 25 mg/kg i.p., read-out: L1210 Leukemia % T/C (median survival time)) was 191%.
For `COc1cccc2c1C(=O)c1c(O)c3c(c(O)c1C2=O)C[C@@](O)(C(=O)CO)C[C@@H]3O[C@H]1C[C@H](N)[C@H](O)[C@H](C)O1` [Adriamycin, reference compound], the IC50 [1] was 0.01 µg/mL (≈ 0.0184 µM) and the response vs control in vivo at 2 mg/kg (L1210 leukemia; [3]) was 183%.
For `Cc1c(-c2ccc(SC(C)C)cc2)nc2ccc(F)cc2c1C(=O)O` [Example 103], the “in vitro HCT-15 ID50 (50 percent inhibition of number of doublings)” value [1, 2] was 0.17 µg/mL and the response vs control in vivo at 200 mg/kg (L1210 leukemia; [5]) was 108%.
In the case of `Cc1c(-c2ccc(C3CCCCC3)cc2)nc2c(Br)cc(Br)cc2c1C(=O)O` [Example 136], the “in vitro HCT-15 ID50 (50 percent inhibition of number of doublings)” value [1, 2] is reported as > 0.50 µg/mL and the response vs control in vivo at 25 mg/kg (L1210 leukemia; Mus musculus, L1210, ip, 720 h, 25 mg/kg i.p., nonoptimal Q1DX9 instead of Q3DX9, read-out: L1210 Leukemia % T/C (median survival time)) is reported as 103%.
In the case of `CCc1c(-c2ccc(C(C)CC)cc2)nc2ccc(F)cc2c1C(=O)O` (stereo not drawn) [Example 17], the “in vitro HCT-15 ID50 (50 percent inhibition of number of doublings)” value [1, 2] is reported as 0.65 µg/mL and the response vs control in vivo at 400 mg/kg (L1210 leukemia; Mus musculus, L1210, ip, 720 h, 400 mg/kg i.p., read-out: L1210 Leukemia % T/C (median survival time)) is reported as 136%.
In the case of `O=C(O)c1cc(-c2ccc(C3CCCCC3)cc2)nc2ccc(Cl)cc12` [Example 94], the “in vitro HCT-15 ID50 (50 percent inhibition of number of doublings)” value [1, 2] is reported as 0.65 µg/mL and the response vs control in vivo at 100 mg/kg (L1210 leukemia; [5]) is reported as 107%.
`Cc1c(-c2ccc(C3CCCCC3)cc2)nc2ccc(Cl)cc2c1C(=O)O` [Example 93] was tested, and the “in vitro HCT-15 ID50 (50 percent inhibition of number of doublings)” value [1, 2] was 0.06 µg/mL and 0.04 µg/mL and the response vs control in vivo at 50 mg/kg (L1210 leukemia; [5]) was 101%.
For `Cc1c(-c2ccc(-c3ccccc3F)cc2)nc2ccc(F)cc2c1C(=O)OCCN(C)C` [Example 197, 6-Fluoro-2-(2'-fluoro-1,1'-biphenyl-4-yl)-3-methyl-[(2dimethylamino)ethyl]ester-4-quinolinecarboxylic acid], the “in vitro HCT-15 ID50 (50 percent inhibition of number of doublings)” value [1, 2] was < 0.01 µg/mL and the response vs control in vivo at 50 mg/kg (L1210 leukemia; [3]) was 179%.
For `Cc1c(-c2ccc(-c3ccccc3)c(F)c2)nc2ccc(F)cc2c1C(=O)O` [Example 210], the “in vitro HCT-15 ID50 (50 percent inhibition of number of doublings)” value [1, 2] was “.03 µg/mL” and the “L1210 Leukemia % T/C” value (L1210 leukemia; 25 mg/kg i.p.) was 177%.
`Cc1c(-c2ccc(-c3ccc(F)cc3)cc2)nc2ccc(F)cc2c1C(=O)O` [Example 177] was tested, and the “in vitro HCT-15 ID50 (50 percent inhibition of number of doublings)” value [1, 2] was < 0.50 µg/mL and the “L1210 Leukemia % T/C” value (L1210 leukemia; 37.5 mg/kg i.p.) was 172%.
With `CCc1ccc(-c2ccc(-c3nc4ccc(F)cc4c(C(=O)O)c3C)cc2)cc1` [Example 40] the IC50 [1, 2] was > 1 µg/mL and the response vs control in vivo at 100 mg/kg (L1210 leukemia; [3]) was 157%.
Compound `CCc1c(-c2ccc(C3CCCCC3)cc2)nc2ccc(C)cc2c1C(=O)O` [Example 15] has an IC50 [1, 2] of 0.28 µg/mL (≈ 0.75 µM) and a response vs control in vivo at 200 mg/kg (L1210 leukemia; [3]) of 158%.
In the case of `O=C(O)c1cc(-c2ccc(-c3ccccc3)cc2)nc2ccc(F)cc12` [Example 33], the IC50 [1, 2] is reported as < 0.5 µg/mL and the response vs control in vivo at 200 mg/kg (L1210 leukemia; [3]) is reported as 170%.
For `CCc1c(-c2ccc(C3CCCCC3)cc2)nc2ccc(C)cc2c1C(=O)O` [Example 105], the “in vitro HCT-15 ID50 (50 percent inhibition of number of doublings)” value [1, 2] was 0.33 µg/mL and the response vs control in vivo at 12.5 mg/kg (L1210 leukemia; Mus musculus, L1210, ip, 720 h, 12.5 mg/kg i.p., nonoptimal Q1DX9 instead of Q3DX9, read-out: L1210 Leukemia % T/C (median survival time)) was 108%.
In the case of `Cc1c(-c2ccc(Oc3ccccc3)cc2)nc2cc(Cl)ccc2c1C(=O)O` [Example 50], the IC50 [1, 2] is reported as > 5 µg/mL and the response vs control in vivo at 100 mg/kg (L1210 leukemia; [3]) is reported as 131%.
